Laboratory results taken from PubChem BioAssay AID1259407 (Chemical Carcinogenesis Research Information System (CCRIS), 2018).
Activity calls are given as the source filed them. The rule behind the calls is not given here.

Tested on: CCRIS mutagenicity, Ames/micronucleus/aberration tests
Assay: CCRIS mutagenicity studies
Conditions: Test System: AMES SALMONELLA TYPHIMURIUM
[1] = Strain/Indicator: TA98, Metabolic Activation: NONE, Method: PREINCUBATION
[2] = Strain/Indicator: TA100, Metabolic Activation: NONE, Method: PREINCUBATION

Compound	mutagenic call [1]	mutagenic call (Strain/Indicator: TA98, Metabolic Activation: RAT, LIVER, S-9, PCB, Method: PREINCUBATION)	mutagenic call [2]	mutagenic call (Strain/Indicator: TA100, Metabolic Activation: RAT, LIVER, S-9, PCB, Method: PREINCUBATION)	mutagenic call (Strain/Indicator: TA98, Metabolic Activation: RAT, LIVER, MICROSOMES, PHENOBARBITAL, Method: PREINCUBATION)	mutagenic call (Strain/Indicator: TA100, Metabolic Activation: RAT, LIVER, MICROSOMES, PHENOBARBITAL, Method: PREINCUBATION)	mutagenic call (Strain/Indicator: TA100, Metabolic Activation: NONE, Method: STANDARD PLATE)	mutagenic call (Strain/Indicator: TA100, Metabolic Activation: S-9, Method: STANDARD PLATE)
NC1CCCC(N)C1 (stereo not given)	inactive; negative	inactive; negative	inactive; negative	inactive; negative	–	–	–	–
CCc1cccc(CC)c1NC(=O)CCl	inactive; negative	–	active; positive	–	inactive; negative	active; positive	–	–
CC(C)C(=O)Nc1snc2cc(Cl)ccc12	–	–	–	–	–	–	inactive; negative	inactive; negative
